Measured values reported in the Biogen ADME set (Fang et al. 2023).
Converted amounts (≈) assume the structure as drawn.

Conditions: for aqueous solubility: pH 6.8

MDR1-MDCK efflux ratio | intrinsic clearance, human liver microsomes [mL/min/kg] | intrinsic clearance, rat liver microsomes [mL/min/kg] | aqueous solubility [µg/mL] | fraction unbound, human plasma | fraction unbound, rat plasma | SMILES
2.32 | 6.19 | 237 | – | – | – | C[C@@H](NC(=O)N1CCC2(CCOCC2)CC1)c1ccc(F)cc1
– | ≤ 4.74 | ≤ 10.7 | – | – | – | N=C(N)NCCCCC(=O)Nc1ccc(C[C@H](NC(=O)[C@@H]2CCCN2S(=O)(=O)c2ccccc2)C(=O)O)cc1
0.684 | 71.2 | 631 | – | – | – | Cc1ccc(=O)n(CCOc2ccc(Cl)c(F)c2)n1
0.71 | 107 | 2090 | – | – | – | Cc1ccc(S(=O)(=O)N2CCOc3ccncc32)cc1
– | 80 | 757 | – | – | – | Cc1sc2ncn(Cc3c(F)cccc3Cl)c(=O)c2c1C
13.9 | 23.4 | 928 | 42.1 (≈ 127 µM) | – | – | CN1CCC(n2ncc3[nH]c(-c4ccc5ccccc5c4)nc32)CC1
0.479 | 23.7 | 255 | – | – | – | COc1ccc(-c2ccc(Cn3nc(C)cc3C)cn2)cc1
0.527 | 133 | 1580 | 16.1 (≈ 47.3 µM) | – | – | COc1cccc(CN2Cc3ccccc3OC3(CCOCC3)C2)c1
0.543 | ≤ 4.74 | 29.1 | 22.2 (≈ 78.1 µM) | – | – | COC(=O)Nc1ccc(Oc2nc3ccccc3o2)cc1
1.05 | 10.1 | 218 | 25 (≈ 95.7 µM) | – | – | CCC(=O)NCc1cc(C2CC2)n(C2CCCC2)n1
0.527 | 7.3 | 20.5 | 22.2 (≈ 89.4 µM) | – | – | CCC(CC)NC(=O)c1ccc2ncsc2c1
– | ≤ 4.74 | ≤ 10.7 | 34.4 (≈ 168 µM) | – | – | Cc1nnc(-c2cccc(C(=O)O)c2)o1
0.351 | 87.8 | 4100 | 28.1 (≈ 100 µM) | – | – | CN(Cc1ccc2c(c1)OCO2)Cc1ccccc1C#N
– | – | – | 29.9 (≈ 61.6 µM) | – | – | Nc1nc(NCCNc2ncc(-c3ncc[nH]3)c(-c3ccc(Cl)cc3Cl)n2)ccc1[N+](=O)[O-]
1.78 | ≤ 4.74 | 105 | 52.1 (≈ 168 µM) | – | – | CCN1CCc2ncnc(N3CCNc4ccccc4C3)c2C1
0.716 | 25.2 | 94.9 | 44.2 (≈ 172 µM) | – | – | CCc1ccccc1NC(=O)Cn1nc(C)cc1C
2.96 | – | – | 0.25 (≈ 0.543 µM) | – | – | NCC(=O)Nc1ccc(-n2nc(C(F)(F)F)cc2-c2ccc3c(ccc4ccccc43)c2)cc1
– | – | – | 1.71 (≈ 7.3 µM) | – | – | N#Cc1ccc(COc2ccccc2C#N)cc1
28.2 | 103 | 924 | 67.7 (≈ 173 µM) | – | – | CC(=O)N1CCCN(C(=O)Nc2ccc(N(C)C3CCCCC3)c(F)c2)CC1
0.743 | – | – | 0.2 (≈ 0.706 µM) | – | – | CCCCOc1ccc(-c2cc3c(=O)[nH]ccn3n2)cc1

MDR1-MDCK efflux ratio | intrinsic clearance, human liver microsomes [mL/min/kg] | intrinsic clearance, rat liver microsomes [mL/min/kg] | aqueous solubility [µg/mL] | fraction unbound, human plasma | fraction unbound, rat plasma | SMILES
0.542 | 5.78 | 85.5 | – | – | – | COc1cc2c(cc1OC)[C@@H]1Cc3ccc(OC)c(OC)c3CN1CC2
1.34 | ≤ 4.74 | ≤ 10.7 | 45.5 (≈ 174 µM) | – | – | CCC(CC)NC(=O)c1cc(C)nc2onc(C)c12
3.77 | 12.5 | 141 | – | – | – | CC(C)CCN1CCC(CNC(=O)C2CC=CC2)CC1
57.1 | ≤ 4.74 | 19.9 | 55 (≈ 159 µM) | – | – | COc1cc2c(cc1OC)CN(C(=O)C1CCCN(C(C)=O)C1)CC2 (stereo unspecified)
– | 137 | 4160 | – | – | – | Cc1cc(C)c(S(=O)(=O)Nc2ccccc2)c(C)c1
0.523 | ≤ 4.74 | 349 | 45.8 (≈ 138 µM) | – | – | CN1CCN(c2ccc(NC(=O)c3ccccc3Cl)nc2)CC1
3.17 | 990 | 3840 | – | – | – | O=C(c1ccccc1N1CCOCC1)N(Cc1ccccn1)C1CCCCC1
– | 55.6 | 391 | – | – | – | Cc1nc(CCNc2cnccc2C#N)cs1
3 | ≤ 4.74 | ≤ 10.7 | 50.6 (≈ 222 µM) | – | – | O=C(O)/C=C/c1ccc(Cn2ccnc2)cc1
27.5 | 16.2 | 122 | – | 0.449 | 0.379 | Cc1ncc(CN2CCC(Nc3ccc4nnnn4n3)C(C)C2)s1 (stereo unspecified)
2.4 | 35.6 | 717 | – | – | – | O=C1CCC(=O)N1CCSc1ncc(-c2ccc(F)cc2)[nH]1
0.793 | 11.6 | 449 | 50 (≈ 159 µM) | – | – | O=C(NCC1(c2ccc(F)cc2)CCOCC1)c1ccccn1
– | ≤ 4.74 | ≤ 10.7 | – | – | – | COc1cc(OC)c2c(=O)cc(CCC(=O)O)oc2c1
0.833 | 131 | 2220 | 8.1 (≈ 20.1 µM) | – | – | COc1ccc(-c2cccc(C3CCCN(CC(=O)Nc4ccccn4)C3)n2)cc1 (stereo unspecified)
0.971 | 27.9 | 375 | 46.2 (≈ 135 µM) | – | – | CC(C)(C)n1ncc(C(=O)N2CCCn3ncnc32)c1C(F)(F)F
24.5 | 322 | 2010 | – | – | – | CC1(C)[C@@H]2C[C@H]1[C@@]1(O)[C@@H](C2)Oc2c(ccc(O)c2C(=O)NCCNc2ccccn2)[C@@H]1O
1.05 | ≤ 4.74 | ≤ 10.7 | 42.9 (≈ 212 µM) | – | – | Cc1ccc(-n2cc[nH]c(=O)c2=O)cc1
0.697 | 120 | 1670 | 27.6 (≈ 93.1 µM) | – | – | Cc1cccc(NC(=O)c2cccnc2N2CCCCC2)n1
18.6 | 357 | 1170 | 46.5 (≈ 109 µM) | – | – | Cc1[nH]c2ccc(Cl)cc2c1CC(=O)N1CCC(Cc2ncncc2C(N)=O)CC1
0.554 | 44 | 449 | 22.5 (≈ 87.8 µM) | – | – | Cc1cnn(Cc2nnc(-c3ccccc3)s2)c1

MDR1-MDCK efflux ratio | intrinsic clearance, human liver microsomes [mL/min/kg] | intrinsic clearance, rat liver microsomes [mL/min/kg] | aqueous solubility [µg/mL] | fraction unbound, human plasma | fraction unbound, rat plasma | SMILES
0.09 | 99 | 149 | – | – | – | O=C(Nc1cncc(Cl)c1Cl)c1cccc(-n2cccn2)n1
– | – | – | – | – | 0.223 | CC(C)NCC(O)COc1cccc2ccccc12 (stereo unspecified)
1.08 | 13.9 | 52.4 | – | – | – | O=C(/C=C\n1cnc(-c2cc(C(F)(F)F)cc(C(F)(F)F)c2)n1)NNc1ccccn1
16.4 | 172 | 578 | – | – | – | Cc1cc(C(F)(F)F)nc(CCNC(=O)N(C)Cc2c(C)noc2C)n1
1.23 | ≤ 4.74 | ≤ 10.7 | – | – | – | Cc1nc(C(=O)NCC(=O)O)c(O)c2ccc(Oc3ccccc3)cc12
6.59 | 31.8 | 153 | – | – | – | CN(C)c1ccc2c(c1)Sc1cc(N(C)C)ccc1N2
1.31 | ≤ 4.74 | 14.1 | – | 1 | 0.838 | CC(=O)Nc1ncc(CN2CCCC[C@@H]2C)s1
– | – | – | 17.8 (≈ 119 µM) | – | – | Nc1nc2c(N)ncnc2[nH]1
0.712 | – | 4750 | – | – | – | O=C(C1CCC1)N1CCC[C@H]1Cn1nnc(-c2cccs2)n1
6.31 | 76.7 | 145 | – | – | 0.0088 | CC1(C)CC[C@]2(NC(=O)C(C)(F)F)CC[C@]3(C)[C@H](C(=O)C=C4[C@@]5(C)C=C(C#N)C(=O)C(C)(C)[C@@H]5CC[C@]43C)[C@@H]2C1
0.787 | 114 | 448 | 38.9 (≈ 114 µM) | – | – | CCN1CCc2ncnc(N(C)Cc3ccc4c(c3)OCCO4)c2C1
0.683 | 128 | 4460 | – | – | – | COc1cccc(CN(C)c2cc(N3CCCC3)ncn2)n1
– | ≤ 4.74 | 36.6 | 41.1 (≈ 182 µM) | – | – | Nc1ccnn1Cc1ccc(Cl)c(F)c1
1.86 | 555 | 2330 | – | – | – | Cc1cccc([C@H]2CN(C(=O)C3CCCC3)[C@@H]3CCN(CC4CC4)C[C@H]23)c1
1.08 | ≤ 4.74 | 46.4 | 65.1 (≈ 199 µM) | – | – | CN(Cc1ccc(Cl)cc1)C(=O)c1ccc(-n2ccnc2)nc1
0.696 | 30.7 | 996 | – | – | – | COCC1(CNS(=O)(=O)c2ccccc2)CCC1
0.68 | 7.63 | 61.4 | – | – | – | CC(C)(C(=O)c1ccccc1)/[N+]([O-])=C/c1ccc(F)cc1
9.93 | – | – | – | – | – | O=C1CCCN1c1ccc(S(=O)(=O)Nc2cccc(-c3nnc4n3CCC4)c2)cc1
6.31 | 36.7 | 498 | – | – | – | O=C(Nc1nccs1)[C@@H]1C[C@@H]2CCCC[C@@H]2N1C(=O)c1ccccc1
